Read-outs that look alike come from different tables or passages of the source.
Legend:
[1] = target: T1, isolated recombinant JAK2 kinase domain (Homo sapiens, UniProt O60674); assay: JAK enzyme assay, JAK2 kinase domain (Caliper LabChip); assay type: biochemical; conditions: 0.2 nM JAK2, ATP 25 μM, Morrison tight binding model
T1 construct: isolated recombinant JAK1 and JAK2 kinase domain
Procedure: (§1) JAK Enzyme Assays were Carried Out as Follows:
(§2) The activity of the isolated recombinant JAK1 and JAK2 kinase domain was measured by monitoring phosphorylation of a peptide derived from JAK3 ([…] fluorescently labeled on the N-terminus with 5-carboxyfluorescein) using the Caliper LabChip® technology (Caliper Life Sciences, Hopkinton, Mass.). To determine inhibition constants (K), compounds were diluted serially in DMSO and added to 50 μL kinase reactions containing purified enzyme (1.5 nM JAK1, or 0.2 nM JAK2), 100 mM HEPES buffer (pH 7.2), 0.015% Brij-35, 1.5 μM peptide substrate, ATP (25 μM), 10 mM MgCl2, 4 mM DTT at a final DMSO concentration of 2%.
(§3) Reactions were incubated at 22° C. in 384-well polypropylene microtiter plates for 30 minutes and then stopped by addition of 25 µL of an EDTA containing solution (100 mM HEPES buffer (pH 7.2), 0.015% Brij-35, 150 mM EDTA), resulting in a final EDTA concentration of 50 mM. After termination of the kinase reaction, the proportion of phosphorylated product was determined as a fraction of total peptide substrate using the Caliper LabChip® 3000 according to the manufacturer's specifications. K values were then determined using the Morrison tight binding model (Morrison, J. F., Biochim. Biophys. Acta. 185:269-296 (1969); William, J. W. and Morrison, J. F., Meth. Enzymol., 63:437-467 (1979)) modified for ATP-competitive inhibition [Ki=Ki, app/(1+[ATP]/Km,app)].

[2] = target: T2, isolated recombinant JAK1 kinase domain (Homo sapiens, UniProt P23458); assay: JAK enzyme assay, JAK1 kinase domain (Caliper LabChip); assay type: biochemical; conditions: 1.5 nM JAK1, ATP 25 μM, Morrison tight binding model
T2 construct: isolated recombinant JAK1 and JAK2 kinase domain
T2 sequence (P23458 875-1153 limits assumed): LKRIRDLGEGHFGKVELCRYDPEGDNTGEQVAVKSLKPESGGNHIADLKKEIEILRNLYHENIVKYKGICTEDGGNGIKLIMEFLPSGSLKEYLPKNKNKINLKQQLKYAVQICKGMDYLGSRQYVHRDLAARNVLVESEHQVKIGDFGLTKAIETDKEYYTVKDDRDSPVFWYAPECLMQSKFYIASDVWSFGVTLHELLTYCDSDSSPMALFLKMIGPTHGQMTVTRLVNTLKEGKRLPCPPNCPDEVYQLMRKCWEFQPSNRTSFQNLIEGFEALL
Procedure: as §1, §2, §3

[3] = system: JAK1-dependent STAT6 phosphorylation downstream of IL-13 stimulation, BEAS-2B human bronchial epithelial cells; assay: JAK1 pathway assay in cell lines: IL-13 stimulated STAT6 phosphorylation in BEAS-2B cells (MSD); assay type: cell-based; conditions: IL-13 stimulation 15 min at EC90, read-out: IL-13 p-STAT6 BEAS-2B IC50
Procedure: JAK1 Pathway Assay in Cell Lines was Carried Out as Follows:
Inhibitor potency (EC50) was determined in cell-based assays designed to measure JAK1 dependent STAT phosphorylation. As noted above, inhibition of IL-4, IL-13, and IL-9 signaling by blocking the Jak/Stat signaling pathway can alleviate asthmatic symptoms in pre-clinical lung inflammation models (Mathew et al., 2001, J Exp Med 193(9): 1087-1096; Kudlacz et. al., 2008, Eur J. Pharmacol 582(1-3): 154-161).
In one assay approach, TF-1 human erythroleukemia cells obtained from the American Type Culture Collection (ATCC; Manassas, Va.) were used to measure JAK1-dependent STAT6 phosphorylation downstream of IL-13 stimulation. Prior to use in the assays, TF-1 cells were starved of GM-CSF overnight in OptiMEM medium (Life Technologies, Grand Island, N.Y.) supplemented with 0.5% charcoal/dextran stripped fetal bovine serum (FBS), 0.1 mM non-essential amino acids (NEAA), and 1 mM sodium pyruvate. The assays were run in 384-well plates in serum-free OptiMEM medium using 300,000 cells per well. In a second assay approach, BEAS-2B human bronchial epithelial cells obtained from ATCC were plated at 100,000 cells per well of a 96-well plate one day prior to the experiment. The BEAS-2B assay was run in complete growth medium (bronchial epithelial basal medium plus bulletkit; Lonza; Basel, Switzerland).
Test compounds were serially diluted 1:2 in DMSO and then diluted 1:50 in medium just before use. Diluted compounds were added to the cells, for a final DMSO concentration of […], and incubated for 30 m (for the TF-1 assay) or […] (for the BEAS-2B assay) at 37° C. Then, cells were stimulated with human recombinant cytokine at their respective EC90 concentrations, as previously determined for each individual lot. Cells were stimulated with IL-13 (R&D Systems, Minneapolis, Minn.) for 15 min at 37° C. The TF-1 cell reactions were stopped by the direct addition of 10× lysis buffer (Cell Signaling Technologies, Danvers, Mass.), whereas the BEAS-2B cell incubations were halted by the removal of medium and addition of 1× lysis buffer. The resultant samples were frozen in the plates at −80° C. Compound mediated inhibition of STAT6 phosphorylation was measured in the cell lysates using MesoScale Discovery (MSD) technology (Gaithersburg, Md.).

T1 sequence (O60674 849-1124 limits assumed): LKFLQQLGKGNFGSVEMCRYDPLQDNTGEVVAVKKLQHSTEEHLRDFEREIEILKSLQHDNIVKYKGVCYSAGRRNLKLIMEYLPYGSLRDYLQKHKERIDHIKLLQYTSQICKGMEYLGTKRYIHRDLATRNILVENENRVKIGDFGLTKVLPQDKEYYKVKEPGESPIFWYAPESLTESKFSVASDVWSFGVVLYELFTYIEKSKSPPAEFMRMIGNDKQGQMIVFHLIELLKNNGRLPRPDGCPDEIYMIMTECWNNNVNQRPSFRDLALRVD

| SMILES | Ki [1] | Ki [2] | IC50 [3] | IC50 ([3]; Homo sapiens, BEAS-2B, […]) |
| --- | --- | --- | --- | --- |
| CN1CCC(n2cc(NC(=O)c3cnn4cccnc34)c(-c3cc(OC(F)F)ccc3OC(F)F)n2)C1=O (single isomer, unassigned) [Example 9, N-[3-[2,5-bis(difluoromethoxy)phenyl]-1-(1-methyl-2-oxo-pyrrolidin-3-yl)pyrazol-4-yl]pyrazolo[1,5-a]pyrimidine-3-carboxamide] | 1.1 nM | 2.1 nM | 67 nM | – |
| CN1CCCC(n2cc(NC(=O)c3cnn4cccnc34)c(-c3cc(Cl)ccc3OC(F)F)n2)C1=O (single isomer, unassigned) [Example 21, N-[3-[5-chloro-2-(difluoromethoxy)phenyl]-1-(1-methyl-2-oxo-3-piperidyl)pyrazol-4-yl]pyrazolo[1,5-a]pyrimidine-3-carboxamide] | 2.1 nM | 4.1 nM | 74 nM | – |
| O=C(Nc1cn(C2CCOC2=O)nc1-c1cc2c(cc1OC(F)F)NCCS2)c1cnn2cccnc12 (single isomer, unassigned) [Example 34, N-[3-[6-(difluoromethoxy)-3,4-dihydro-2H-1,4-benzothiazin-7-yl]-1-(2-oxotetrahydrofuran-3-yl)pyrazol-4-yl]pyrazolo[1,5-a]pyrimidine-3-carboxamide] | 0.056 nM | 0.092 nM | – | – |
| CS(=O)(=O)c1ccc(OC(F)F)c(-c2nn(C3CCOC3=O)cc2NC(=O)c2cnn3cccnc23)c1 (single isomer, unassigned) [Example 40, N-[3-[2-(difluoromethoxy)-5-methylsulfonyl-phenyl]-1-(2-oxotetrahydrofuran-3-yl)pyrazol-4-yl]pyrazolo[1,5-a]pyrimidine-3-carboxamide] | 0.62 nM | 1.1 nM | – | 120 nM |
| O=C(Nc1cn(C2CCOC2=O)nc1-c1cc(OC(F)F)ccc1OC(F)F)c1cnn2cccnc12 (single isomer, unassigned) [Example 36, N-[3-[2,5-bis(difluoromethoxy)phenyl]-1-(2-oxotetrahydrofuran-3-yl)pyrazol-4-yl]pyrazolo[1,5-a]pyrimidine-3-carboxamide] | 0.4 nM | 0.65 nM | – | 18 nM |
| O=C(Nc1cn(C2CCOC2=O)nc1-c1cc2c(cc1OC(F)F)NCCO2)c1cnn2cccnc12 (single isomer, unassigned) [Example 39, N-[3-[6-(difluoromethoxy)-3,4-dihydro-2H-1,4-benzoxazin-7-yl]-1-(2-oxotetrahydrofuran-3-yl)pyrazol-4-yl]pyrazolo[1,5-a]pyrimidine-3-carboxamide; formic acid] | 0.29 nM | 0.32 nM | – | – |
| CSc1ccc(OC(F)F)c(-c2nn(C3CCN(C)C3=O)cc2NC(=O)c2cnn3cccnc23)c1 (single isomer, unassigned) [Example 6, N-[3-[2-(difluoromethoxy)-5-methylsulfanyl-phenyl]-1-(1-methyl-2-oxo-pyrrolidin-3-yl)pyrazol-4-yl]pyrazolo[1,5-a]pyrimidine-3-carboxamide] | 0.24 nM | 0.18 nM | 11 nM | – |
| Cn1[nH]cc(-n2cc(NC(=O)c3cnn4cccnc34)c(-c3cc(Cl)ccc3OC(F)F)n2)c1=O [Example 26] | 0.14 nM | 1.4 nM | – | 280 nM |
| O=C(Nc1cn(C2CCNC2=O)nc1-c1cc(Cl)ccc1OC(F)F)c1cnn2cccnc12 (single isomer, unassigned) [Example 5, N-[3-[5-chloro-2-(difluoromethoxy)phenyl]-1-(2-oxopyrrolidin-3-yl)pyrazol-4-yl]pyrazolo[1,5-a]pyrimidine-3-carboxamide] | 0.48 nM | 1.8 nM | – | 40 nM |
| CN1CCC(n2cc(NC(=O)c3cnn4cccnc34)c(-c3cc(SC(F)F)ccc3OC(F)F)n2)C1=O (single isomer, unassigned) [Example 19, N-[3-[2-(difluoromethoxy)-5-(difluoromethyl-sulfanyl)phenyl]-1-(1-methyl-2-oxo-pyrrolidin-3-yl)pyrazol-4-yl]pyrazolo[1,5-a]pyrimidine-3-carboxamide] | 0.55 nM | 2.5 nM | 59 nM | – |
| O=C(Nc1cn(C2CCOC2=O)nc1-c1cc(OC(F)F)ccc1OC(F)F)c1cnn2cccnc12 (single isomer, unassigned) [Example 37, N-[3-[2,5-bis(difluoromethoxy)phenyl]-1-(2-oxotetrahydrofuran-3-yl)pyrazol-4-yl]pyrazolo[1,5-a]pyrimidine-3-carboxamide] | 0.18 nM | 0.26 nM | 14 nM | – |
| CN1CCN(C(=O)CN2CCC(n3cc(NC(=O)c4cnn5cccnc45)c(-c4cc(Cl)ccc4OC(F)F)n3)C2=O)CC1 (single isomer, unassigned) [Example 16, N-[3-[5-chloro-2-(difluoromethoxy)phenyl]-1-[1-[2-(4-methylpiperazin-1-yl)-2-oxo-ethyl]-2-oxo-pyrrolidin-3-yl]pyrazol-4-yl]pyrazolo[1,5-a]pyrimidine-3-carboxamide] | 0.68 nM | 2.8 nM | – | 200 nM |
| CSc1ccc(OC(F)F)c(-c2nn(C3CCOC3=O)cc2NC(=O)c2cnn3cccnc23)c1 (single isomer, unassigned) [Example 30, N-[3-[2-(difluoromethoxy)-5-methylsulfanyl-phenyl]-1-(2-oxotetrahydrofuran-3-yl)pyrazol-4-yl]pyrazolo[1,5-a]pyrimidine-3-carboxamide] | 0.096 nM | 0.15 nM | 11 nM | – |
| O=C(Nc1cn(C2CCOC2=O)nc1-c1cc2c(cc1OC(F)F)NCCO2)c1cnn2cccnc12 (single isomer, unassigned) [Example 38, N-[3-[6-(difluoromethoxy)-3,4-dihydro-2H-1,4-benzoxazin-7-yl]-1-(2-oxotetrahydrofuran-3-yl)pyrazol-4-yl]pyrazolo[1,5-a]pyrimidine-3-carboxamide] | 0.42 nM | 0.6 nM | – | – |
| O=C(Nc1cn(C2CCOC2=O)nc1-c1cc2c(cc1OC(F)F)NCCS2)c1cnn2cccnc12 (single isomer, unassigned) [Example 33, N-[3-[6-(difluoromethoxy)-3,4-dihydro-2H-1,4-benzothiazin-7-yl]-1-(2-oxotetrahydrofuran-3-yl)pyrazol-4-yl]pyrazolo[1,5-a]pyrimidine-3-carboxamide] | 0.095 nM | 0.17 nM | – | – |
| CN1CCC(n2cc(NC(=O)c3cnn4cccnc34)c(-c3cc4c(cc3OC(F)F)NCCS4)n2)C1=O (single isomer, unassigned) [Example 12] | 0.11 nM | 0.15 nM | – | – |
| O=C(Nc1cn(C2CCN(CCN3CCOCC3)C2=O)nc1-c1cc(Cl)ccc1OC(F)F)c1cnn2cccnc12 (single isomer, unassigned) [Example 15, N-[3-[5-chloro-2-(difluoromethoxy)phenyl]-1-[1-(2-morpholinoethyl)-2-oxo-pyrrolidin-3-yl]pyrazol-4-yl]pyrazolo[1,5-a]pyrimidine-3-carboxamide] | 1 nM | 4.4 nM | – | – |

— patent US20200339604A1, “PYRAZOLOPYRIMIDINE COMPOUNDS AS JAK INHIBITORS” (Genentech, Inc., priority 2018, published 2020)
